Reference: patent publication EP4008401A1, “COMPOSITION FOR CARTILAGE REGENERATION PROMOTION” (Suntory Holdings Limited, priority 2019, dated 2021)
Read-outs that look alike come from different tables or passages of the source.

System: human synovial cells
Test: Cartilage pellet culture of human synovial cells (weight of cartilage pellets; differentiation into cartilage cells)
Assay type: cell-based
Details: for activity at 5 µM / activity at 50 µM: Homo sapiens, Synovial cell, 504 h, read-out: Rate of increase (%); for Weight of pellets (g) (Ave): cultured three weeks; for weight of the cartilage pellets as compared to the control: result in words
Procedure: Purchased human synovial cells (available from Toyobo Co., Ltd.; HFLS (Normal), cryopreserved cells (adult); Code No. CA40805a) were seeded into a 150 mm culture dish (available from Corning) at a low density of 50 cells/cm^2 and cultured for 14 days.
The human synovial cells were cultured in the following medium. • α-MEM (available from Nacalai Tesque Inc.) • 10% Fetal bovine serum (available from Sigma-Aldrich) Antibiotic-Antimycotic Mixed Stock Solution (available from Nacalai Tesque Inc.)
Proliferated human synovial cells were detached with Accutase (available from Funakoshi Co., Ltd.), and the medium containing 20 × 10^4 cells was placed in a 15 mL tube made of polypropylene, followed by centrifugation at 1000 × rpm for five minutes. The recovered human synovial cells were cultured in a medium containing a test compound shown in Table 1 for three weeks, and the weight of the resultant cartilage pellets was measured (N = 3, each). The medium containing the test compound was replaced once in two or three days. The test compound was dissolved in the medium using dimethyl sulfoxide (DMSO) (available from Nacalai Tesque Inc.; final concentration: 0.1%) to a final concentration of 50 µM. The test compound was taxifolin (available from Sigma-Aldrich) or hesperetin (available from Funakoshi Co., Ltd.).
The cartilage pellets were cultured in the following medium. The control was cultured by adding DMSO without test compounds to the medium described below (final concentration of DMSO: 0.1%).
DMEM high-glucose (available from Thermo Fisher Scientific) 50 µg/mL L-ascorbic acid 2-phosphate sesquimagnesium salt hydrate (available from Sigma-Aldrich) 40 µg/mL L-proline (available from Sigma-Aldrich) 100 µg/mL Sodium pyruvate (available from Sigma-Aldrich) 50 mg/mL ITS + Premix (available from Corning) 10 ng/mL Transforming growth factor β3 (available from Sigma-Aldrich) 100 nM Dexamethasone (available from Sigma-Aldrich) 50 ng/mL Bone morphogenetic protein 2 (BMP-2) (available from Sigma-Aldrich)
In Table 1, the weight of pellets (g) is the weight of the cartilage pellets (average with N of 3), and SE is the standard error of the weight of pellets. […] A significant difference in the rate of increase (%) determined from the weight of the cartilage pellets relative to the control was tested by Student's t-test, with the significance level being 5% or lower. […]
The test of Example 1 was repeated, except that quercetin (available from Nacalai Tesque Inc.), isorhamnetin (available from Funakoshi Co., Ltd.), or eriodictyol (available from Funakoshi Co., Ltd.) was used as a test compound, and the test compound in the medium was adjusted to a final concentration of 5 µM. […] A significant difference test was performed as in Example 1, with the significance level being 5% or lower.
The test of Example 1 was repeated, except that luteolin (available from Funakoshi Co., Ltd.) or morin (available from Nacalai Tesque Inc.) was used as a test compound, and the test compound in the medium was adjusted to a final concentration of 5 µM. […] A significant difference test was performed as in Example 1, with the significance level being 5% or lower and the marginal significance level being 10% or lower. […]
The test of Example 1 was repeated, except that the compounds shown in Table 4 were used as test compounds and tested with N = 1. […] The final concentration of each of the compounds Nos. 1 to 15 in the medium was adjusted to 5 µM. The final concentration of each of the compounds Nos. 16 to 21 in the medium was adjusted to 50 µM.

[1] = Comparative Example 1, compounds Nos. 1 to 15, 5 µM, weight relative to control taken as 100%, N = 1
[2] = Example 3, test compound 5 µM in medium, average of N of 3
[3] = Example 3, 5 µM, weight of cartilage pellets relative to control taken as 100%, N = 3
[4] = Comparative Example 1, compounds Nos. 16 to 21, 50 µM, weight relative to control taken as 100%, N = 1
[5] = Example 1, test compound 50 µM in medium, average with N of 3
[6] = Example 1, 50 µM, weight of cartilage pellets relative to control taken as 100%, N = 3
[7] = Example 2, test compound 5 µM in medium, average with N of 3
[8] = Example 2, 5 µM, weight of cartilage pellets relative to control taken as 100%, N = 3

COc1ccc(-c2coc3cc(O)cc(O)c3c2=O)cc1 [Biochaninn A]
activity at 5 µM [1]: 21.4%

COc1ccc(-c2coc3cc(O)ccc3c2=O)cc1O [Calycosin]
activity at 5 µM [1]: 95.3%

O=c1c(-c2ccc(O)cc2)coc2cc(O)ccc12 [Daidzein]
activity at 5 µM [1]: 100%

O=c1c(O)c(-c2ccc(O)cc2O)oc2cc(O)cc(O)c12 [Morin, morin]
Weight of pellets (g) (Ave) [2]: 4.00 g
weight of the cartilage pellets as compared to the control (Examples 2 and 3, 5 µM): significant increase
activity at 5 µM [3]: 145%

O=c1cc(-c2ccccc2)oc2cc(O)cc(O)c12 [Chrysin]
activity at 50 µM [4]: 108%

O=C(/C=C/c1ccc(O)cc1)c1c(O)cc(O)cc1O [4,2',4',6'-Tetrahydroxychalcon]
activity at 5 µM [1]: 118%

Oc1cc(O)c2cc(O)c(-c3ccc(O)c(O)c3)[o+]c2c1 [Cyanidin]
activity at 5 µM [1]: 51.2%

O=c1c(-c2ccc(O)cc2)coc2cc(O)cc(O)c12 [Genistein]
activity at 5 µM [1]: 104%

O=C1c2c(O)cc(O)cc2O[C@H](c2ccc(O)c(O)c2)[C@H]1O [Taxifolin, taxifolin]
weight of the cartilage pellets as compared to the control (Example 1, 50 µM): significant increase
Weight of pellets (g) (Ave) [5]: 5.73 g
activity at 50 µM [6]: 144%

Oc1ccc([C@H]2COc3cc(O)ccc3C2)cc1 [Equol]
activity at 5 µM: 81.4%

COc1cc(-c2oc3cc(O)cc(O)c3c(=O)c2O)ccc1O [Isorham netin, isorhamnetin]
Weight of pellets (g) (Ave) [7]: 5.77 g
weight of the cartilage pellets as compared to the control (Examples 2 and 3, 5 µM): significant increase
activity at 5 µM [8]: 159%

O=C1c2c(O)cc(O)cc2OCC1c1ccc(O)cc1 (stereo not drawn) [Dihydrogenistein]
activity at 50 µM [4]: 92.9%

O=c1c(-c2ccc(O)c(O)c2)coc2cc(O)ccc12 [7,3',4'-Trihydroxyisoflavone]
activity at 5 µM [1]: 95.3%

O=C(/C=C/c1ccc(O)c(O)c1)c1c(O)cc(O)cc1O [3,4,2',4',6'-Pentahydroxychalcon]
activity at 5 µM [1]: 111%

O=c1cc(-c2ccc(O)c(O)c2)oc2cc(O)cc(O)c12 [Luteolin, luteolin]
Weight of pellets (g) (Ave) [2]: 3.53 g
weight of the cartilage pellets as compared to the control (Examples 2 and 3, 5 µM): increase
activity at 5 µM [3]: 128%

Oc1cc(O)c2cc(O)c(-c3cc(O)c(O)c(O)c3)[o+]c2c1 [Delphinidin]
activity at 5 µM [1]: 41.9%

O=c1c(O)c(-c2ccc(O)cc2)oc2cc(O)cc(O)c12 [Kaempferol]
activity at 50 µM [4]: 95.8%

O=C1C[C@@H](c2ccc(O)cc2)Oc2cc(O)cc(O)c21 [Naringenin]
activity at 50 µM [4]: 117%

O=c1c(O)c(-c2cc(O)c(O)c(O)c2)oc2cc(O)cc(O)c12 [Myricetin]
activity at 5 µM [1]: 69.8%

Oc1cc(O)c2c(c1)OC(c1ccc(O)c(O)c1)C(O)C2 (stereo not drawn) [Catechin]
activity at 50 µM: 112%

Oc1cc(O)c2c(c1)O[C@H](c1ccc(O)c(O)c1)[C@H](O)C2 [Epicatechin]
activity at 50 µM [4]: 117%

C[C@@H]1O[C@@H](O[C@H]2C(=O)c3c(O)cc(O)cc3O[C@@H]2c2ccc(O)c(O)c2)[C@H](O)[C@H](O)[C@H]1O [Astilbin]
activity at 5 µM [1]: 60.5%

COc1ccc(-c2coc3cc(O)ccc3c2=O)cc1 [Formononetin]
activity at 5 µM [1]: 100%

O=C(/C=C/c1ccc(O)cc1)c1ccc(O)cc1O [Isoliquiritigenin]
activity at 5 µM: 82.1%

O=c1cc(-c2ccc(O)cc2)oc2cc(O)cc(O)c12 [Apigenin]
activity at 5 µM [1]: 105%

O=c1c(O)c(-c2ccc(O)c(O)c2)oc2cc(O)cc(O)c12 [Quercetin, quercetin]
Weight of pellets (g) (Ave) [7]: 5.90 g
weight of the cartilage pellets as compared to the control (Examples 2 and 3, 5 µM): significant increase
activity at 5 µM [8]: 162%

COc1ccc([C@@H]2CC(=O)c3c(O)cc(O)cc3O2)cc1O [Hesperetin, hesperetin]
weight of the cartilage pellets as compared to the control (Example 1, 50 µM): significant increase
Weight of pellets (g) (Ave) [5]: 5.50 g
activity at 50 µM [6]: 139%

O=C1C[C@@H](c2ccc(O)c(O)c2)Oc2cc(O)cc(O)c21 [Eriodictyol, eriodictyol]
Weight of pellets (g) (Ave) [7]: 4.80 g
weight of the cartilage pellets as compared to the control (Examples 2 and 3, 5 µM): significant increase
activity at 5 µM [8]: 132%
